According to patent US20210254056A1, “IDENTIFICATION AND TARGETED MODULATION OF GENE SIGNALING NETWORKS” (CAMP4 THERAPEUTICS CORPORATION, priority 2017, published 2021):
Like-named read-outs stand apart in the source and are kept apart here.

Tested on: hepatocytes
Experiment: RNA-seq of hepatocytes treated with Phase III failure compounds
Conditions: for significant modulation of expression of disease genes: q≤0.05, genes in the value or listed in the block; for significant modulation of expression of any of the genes analyzed: p≤0.05
Experimental: RNA-seq was performed to determine the effects of the compounds on hepatocytes.
Significance was determined by the criteria of FPKM≥0.5, a log 2(fold-change)≥1, and a […].

In the case of `COc1cc2c(Oc3ccc4[nH]c(C)cc4c3F)ncnc2cc1OCCCN1CCCC1` [Cediranib], the “RNA-seq results, CYP2B6 expression” value was −0.46, the “RNA-seq results, CYP2C19 expression” value was −0.80 and the “RNA-seq results, CYP2D6 expression” value was −0.12. The “RNA-seq results, CYP3A4 expression” value was −0.75, the “RNA-seq results, CYP7B1 expression” value was −0.93 and the “RNA-seq results, CYP39A1 expression” value was −0.61. For the same molecule, the “RNA-seq results: CYP2B6 expression” value was 0.41, the “RNA-seq results: CYP2C19 expression” value was −1 and the “RNA-seq results: CYP2D6 expression” value was 0.79. For the same molecule, the “RNA-seq results: CYP3A4 expression” value was 1.58, the “RNA-seq results: CYP7B1 expression” value was −0.02 and the “RNA-seq results: CYP39A1 expression” value was −0.24. The “significant modulation of expression of disease genes” value (RNA-seq, hepatocytes) was “significantly (q≤0.05) modulate expression”, the “effect on disease gene expression” value (RNA-seq, hepatocytes) was “effect on expression of too many disease genes” and the “genes down-regulated by the compound” value (RNA-seq, hepatocytes, gene named in the value) was “down-regulate Factor V levels”. The “RNA-seq results: A1BG expression” value (gene A1BG, hepatocytes) was 0.15, the “RNA-seq results: AGTR1 expression” value (gene AGTR1, hepatocytes) was −0.32 and the “RNA-seq results: AGXT expression” value (gene AGXT, hepatocytes) was −0.23. For the same molecule, the “RNA-seq results: AHI1 expression” value (gene AHI1, hepatocytes) was −0.17, the “RNA-seq results: AMPD3 expression” value (gene AMPD3, hepatocytes) was −0.52 and the “RNA-seq results: AMT expression” value (gene AMT, hepatocytes) was −0.23. For the same molecule, the “RNA-seq results: ANGPTL3 expression” value (gene ANGPTL3, hepatocytes) was −1.40, the “RNA-seq results: ANKS4B expression” value (gene ANKS4B, hepatocytes) was −0.31 and the “RNA-seq results: ANKS6 expression” value (gene ANKS6, hepatocytes) was 0.09. For the same molecule, the “RNA-seq results: ANPEP expression” value (gene ANPEP, hepatocytes) was −0.85, the “RNA-seq results: AOC2 expression” value (gene AOC2, hepatocytes) was −0.47 and the “RNA-seq results: APOA2 expression” value (gene APOA2, hepatocytes) was 0.16. The “RNA-seq results: APOA5 expression” value (gene APOA5, hepatocytes) was −0.08, the “RNA-seq results: APOB expression” value (gene APOB, hepatocytes) was −0.99 and the “RNA-seq results: COG5 expression” value (gene COG5, hepatocytes) was −0.45. The “RNA-seq results: COG6 expression” value (gene COG6, hepatocytes) was −0.46, the “RNA-seq results: COL1A1 expression” value (gene COL1A1, hepatocytes) was −0.72 and the “RNA-seq results: COX6A1 expression” value (gene COX6A1, hepatocytes) was 0.16. For the same molecule, the “RNA-seq results: CP expression” value (gene CP, hepatocytes) was 0.53, the “RNA-seq results: CPS1 expression” value (gene CPS1, hepatocytes) was −0.28 and the “RNA-seq results: CPT1A expression” value (gene CPT1A, hepatocytes) was 0.16. For the same molecule, the “RNA-seq results: CPT2 expression” value (gene CPT2, hepatocytes) was 1.26, the “RNA-seq results: CROT expression” value (gene CROT, hepatocytes) was 0.55 and the “RNA-seq results: CSPP1 expression” value (gene CSPP1, hepatocytes) was −0.7. For the same molecule, the “RNA-seq results: CTC1 expression” value (gene CTC1, hepatocytes) was −0.9, the “RNA-seq results: CTDSP2 expression” value (gene CTDSP2, hepatocytes) was −0.18 and the “RNA-seq results: CTH expression” value (gene CTH, hepatocytes) was 0.66. The “RNA-seq results: CTNS expression” value (gene CTNS, hepatocytes) was −1.18, the “RNA-seq results: CTSF expression” value (gene CTSF, hepatocytes) was 0.6 and the “RNA-seq results: CTSK expression” value (gene CTSK, hepatocytes) was 0.02. The “RNA-seq results: CYB5A expression” value (gene CYB5A, hepatocytes) was −0.16, the “RNA-seq results: CYB5R3 expression” value (gene CYB5R3, hepatocytes) was 0.14 and the “RNA-seq results: CYP27A1 expression” value (gene CYP27A1, hepatocytes) was 0.51. For the same molecule, the “RNA-seq results: DAO expression” value (gene DAO, hepatocytes) was 0.23, the “RNA-seq results: DBT expression” value (gene DBT, hepatocytes) was −0.33 and the “RNA-seq results: DCDC2 expression” value (gene DCDC2, hepatocytes) was −1.25. For the same molecule, the “RNA-seq results: DCXR expression” value (gene DCXR, hepatocytes) was 0.96, the “RNA-seq results: FABP1 expression” value (gene FABP1, hepatocytes) was 0.4 and the “RNA-seq results: FADD expression” value (gene FADD, hepatocytes) was −0.23. For the same molecule, the “RNA-seq results: FAM111A expression” value (gene FAM111A, hepatocytes) was −0.68, the “RNA-seq results: FAM111B expression” value (gene FAM111B, hepatocytes) was −0.13 and the “RNA-seq results: FAN1 expression” value (gene FAN1, hepatocytes) was −1.14. For the same molecule, the “RNA-seq results: FARS2 expression” value (gene FARS2, hepatocytes) was −0.84, the “RNA-seq results: FASLG expression” value (gene FASLG, hepatocytes) was −1.48 and the “RNA-seq results: FGA expression” value (gene FGA, hepatocytes) was 0.87. The “RNA-seq results: FGD1 expression” value (gene FGD1, hepatocytes) was −0.22, the “RNA-seq results: FGFR2 expression” value (gene FGFR2, hepatocytes) was −0.16 and the “RNA-seq results: FIG4 expression” value (gene FIG4, hepatocytes) was −0.45. The “RNA-seq results: FIS1 expression” value (gene FIS1, hepatocytes) was −0.27, the “RNA-seq results: FTCD expression” value (gene FTCD, hepatocytes) was −0.68 and the “RNA-seq results: FTH1 expression” value (gene FTH1, hepatocytes) was −0.17. For the same molecule, the “RNA-seq results: FUCA1 expression” value (gene FUCA1, hepatocytes) was 1.44, the “RNA-seq results: FXN expression” value (gene FXN, hepatocytes) was −1.56 and the “RNA-seq results: G6PC3 expression” value (gene G6PC3, hepatocytes) was −0.89. The “RNA-seq results: G6PC expression” value (gene G6PC, hepatocytes) was 0.32, the “RNA-seq results: G6PD expression” value (gene G6PD, hepatocytes) was 1.51 and the “RNA-seq results: GALK1 expression” value (gene GALK1, hepatocytes) was −0.27. The “RNA-seq results: GALK2 expression” value (gene GALK2, hepatocytes) was 0.04, the “RNA-seq results: GALT expression” value (gene GALT, hepatocytes) was −0.02 and the “RNA-seq results: GATA6 expression” value (gene GATA6, hepatocytes) was −0.1. The “RNA-seq results: GATM expression” value (gene GATM, hepatocytes) was −0.66, the “RNA-seq results: GBA expression” value (gene GBA, hepatocytes) was −0.06 and the “RNA-seq results: GBE1 expression” value (gene GBE1, hepatocytes) was −0.62. For the same molecule, the “RNA-seq results: GCH1 expression” value (gene GCH1, hepatocytes) was 1.49, the “RNA-seq results: GCKR expression” value (gene GCKR, hepatocytes) was −1.15 and the “RNA-seq results: GCLC expression” value (gene GCLC, hepatocytes) was 0.3. The “RNA-seq results: GOSH expression” value (gene GOSH, hepatocytes) was −0.39, the “RNA-seq results: RRM2B” value (gene RRM2B, hepatocytes) was −0.75 and the “RNA-seq results: RSAD1” value (gene RSAD1, hepatocytes) was 0.13. The “RNA-seq results: SAMHD1” value (gene SAMHD1, hepatocytes) was −1.05, the “RNA-seq results: SC5D” value (gene SC5D, hepatocytes) was 0.51 and the “RNA-seq results: SCARB1” value (gene SCARB1, hepatocytes) was −0.30. For the same molecule, the “RNA-seq results: SCN9A” value (gene SCN9A, hepatocytes) was −0.39, the “RNA-seq results: SDCCAG8” value (gene SDCCAG8, hepatocytes) was −0.30 and the “RNA-seq results: SEPN1” value (gene SEPN1, hepatocytes) was −0.85. The “RNA-seq results: SERAC1” value (gene SERAC1, hepatocytes) was −0.14, the “RNA-seq results: SERPINA1” value (gene SERPINA1, hepatocytes) was −0.19 and the “RNA-seq results: SERPING1” value (gene SERPING1, hepatocytes) was −0.29. The “RNA-seq results: SERPINI1” value (gene SERPINI1, hepatocytes) was −0.73, the “RNA-seq results: SETBP1” value (gene SETBP1, hepatocytes) was −0.30 and the “RNA-seq results: SFXN4” value (gene SFXN4, hepatocytes) was −0.01. The “RNA-seq results: SLC10A1” value (gene SLC10A1, hepatocytes) was −0.88, the “RNA-seq results: SLC10A3” value (gene SLC10A3, hepatocytes) was −0.50 and the “RNA-seq results: SLC10A5” value (gene SLC10A5, hepatocytes) was −0.90. For the same molecule, the “RNA-seq results: SLC10A7” value (gene SLC10A7, hepatocytes) was −0.52, the “RNA-seq results: SLC11A2” value (gene SLC11A2, hepatocytes) was −0.59 and the “RNA-seq results: SLC19A1” value (gene SLC19A1, hepatocytes) was −0.45. The “RNA-seq results: SLC19A2” value (gene SLC19A2, hepatocytes) was −0.03, the “RNA-seq results: SLC19A3” value (gene SLC19A3, hepatocytes) was −0.68 and the “RNA-seq results: SLC22A1” value (gene SLC22A1, hepatocytes) was −0.13. For the same molecule, the “RNA-seq results: SLC22A5” value (gene SLC22A5, hepatocytes) was 0.06, the “RNA-seq results: SLC25A1” value (gene SLC25A1, hepatocytes) was −0.09 and the “RNA-seq results: SLC25A10” value (gene SLC25A10, hepatocytes) was −0.40. For the same molecule, the “RNA-seq results: SLC25A12” value (gene SLC25A12, hepatocytes) was −0.41, the “RNA-seq results: SLC25A13” value (gene SLC25A13, hepatocytes) was −0.29 and the “RNA-seq results: SLC25A15” value (gene SLC25A15, hepatocytes) was −0.47. For the same molecule, the “RNA-seq results: SLC25A19” value (gene SLC25A19, hepatocytes) was 0.26, the “RNA-seq results: SLC25A20” value (gene SLC25A20, hepatocytes) was −0.32 and the “RNA-seq results: SLC25A29” value (gene SLC25A29, hepatocytes) was −0.11. For the same molecule, the “RNA-seq results: SLC25A32” value (gene SLC25A32, hepatocytes) was −0.13.

In the case of `C=CCNC1=C2C[C@@H](C)C[C@H](OC)[C@H](O)[C@@H](C)/C=C(\C)[C@H](OC(N)=O)[C@@H](OC)/C=C\C=C(/C)C(=O)NC(=CC1=O)C2=O` [Compound 17-AAG], the “Number (#) of genes having significantly changed expression” value was 1558.

For `Cc1ccc2c(=O)c3cccc(CC(=O)O)c3oc2c1C` [DMXAA], the “significant changes in gene expression” value (RNA-seq of Table 36, FPKM≥0.5, log 2(fold-change)≥1, q-value≤0.05) was “not observed to cause any significant changes in gene expression”, the “significant modulation of expression of any of the genes analyzed” value (RNA-seq, hepatocytes) was “not observed to significantly modulate expression” and the “effect on disease gene expression” value (RNA-seq, hepatocytes) was “no effect on any disease gene”.

`COc1cc2ncnc(Nc3ccc(F)c(Cl)c3)c2cc1NC(=O)/C=C/CN1CCCCC1` [Dacomitinib (PF299804, PF299), Dacomitinib] was tested, and the “significant modulation of expression of any of the genes analyzed” value (RNA-seq, hepatocytes) was “not observed to significantly modulate expression”.

`CCC(CC)CC1(C(=O)Nc2ccccc2SC(=O)C(C)C)CCCCC1` [Dalcetrapib] was tested, and the “Number (#) of genes having significantly changed expression” value (RNA-seq, Phase III failure compounds, hepatocytes, significance: FPKM≥0.5, log 2(fold-change)≥1, q-value≥0.05 (so in the source)) was 43, the “significant modulation of expression of disease genes” value (RNA-seq, hepatocytes) was “significantly (q≤0.05) modulate expression of CYP3A4 and GOSH” and the “effect on disease gene expression” value (RNA-seq, hepatocytes) was “no effect on any disease gene”.
